{
  "source": "patent US11384071B2",
  "about": "“Inhibitors of mechanotransduction to treat pain and modulate touch perception” (Max-Delbrück-Centrum für Molekulare Medizin in der …, priority 2016, dated 2022)",
  "key": {"[1]": {"biological_target": "T1, STOML2 (Mus musculus, UniProt Q99JB2)", "T1 construct": "expressed in transfected cells; host or cells: HEK293 (general statement on the BiFC assay)", "T1 sequence (Q99JB2 29-353)": "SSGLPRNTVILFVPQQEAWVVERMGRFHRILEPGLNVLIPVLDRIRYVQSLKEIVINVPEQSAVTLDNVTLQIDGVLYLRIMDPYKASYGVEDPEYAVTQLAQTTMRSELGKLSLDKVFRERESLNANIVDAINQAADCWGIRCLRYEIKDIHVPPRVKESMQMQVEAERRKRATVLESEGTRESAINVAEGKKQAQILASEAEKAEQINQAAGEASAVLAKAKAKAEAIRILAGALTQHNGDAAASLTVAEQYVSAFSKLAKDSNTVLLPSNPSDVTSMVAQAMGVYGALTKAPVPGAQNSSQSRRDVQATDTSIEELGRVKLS", "experiment": "BiFC assay of STOML2 self-association", "assay_type": "cell-based", "experimental": "(§1) FIG. 8: Effects of STOML3 modulating molecules on other Stomatin-domain proteins. (a) BiFC signal development observed when cells were transfected with Stomatin-VC/-VN, STOML1-VC/-VN, STOML2-VC/-VN, STOML3-VC/-VN or Podocin-VC/-VN expression constructs respectively. […] (b) OB-1 was tested at two different concentrations (2 μm and 20 μm) using the BiFC assay where wild type STOML3 was used as both bait and prey.\n(§2) In mammals STOML3 belongs to a family of five structurally conserved membrane proteins, including stomatin, STOML1, STOML2, and podocin^10,12-16, all of which self-associate via their stomatin-domain (FIG. 8a)^10. Self-association of stomatin-domain proteins can be monitored in HEK293 cells using Bimolecular Fluorescence Complementation (BiFC) whereby N- and C-terminal halves of the YFP molecule are tagged to the prey and bait protein STOML3^2,17 (FIG. 1a). Irreversible association of the YFP fragments produces fluorescence that increases linearly over time (FIG. 1b)."}, "[2]": {"test_system": "dissociated mouse DRG neurons", "experiment": "Action potential properties and electrical excitability of dissociated DRG neurons", "assay_type": "cell-based", "experimental": "Whole-cell, patch-clamp recordings were conducted as previously described 5-7, using patch pipettes with a tip resistance of 3-6 MΩ, filled with a solution of: 110 mM KCl, 10 mM NaCl, 1 mM MgCl2, 1 mM EGTA and 10 mM HEPES, adjusted to pH 7.3 with KOH. (For experiments on DRG neurons 10 mM QX-314 was added to the pipette to block voltage-gated sodium channels 8 Extracellular solutions contained 140 mM NaCl, 4 mM KCl, 2 mM CaCl2, 1 mM MgCl2, 4 mM glucose, 10 mM HEPES, adjusted to pH 7.4 with NaOH. A Zeiss 200 inverted microscope and an EPC-10 amplifier in combination with Patchmaster software was used, data was analyzed using Fitmaster software (HEKA Electronik GmbH, Germany). Pipette and membrane capacitance were compensated using the auto function of Patchmaster, series resistance was compensated by at least 60% to minimize voltage errors. Mechanical stimuli were applied using a polished glass probe driven by the MM3A micromanipulator (Kleindiek Nanotechnik, Germany). Mechanical stimuli were applied by either; indenting the cell soma or by culturing cells on elastomeric pillar arrays and applying the stimulus to the cell-substrate interface by deflecting an individual pilus.\nBriefly, elastomeric pillar arrays of defined dimensions were cast in PDMS with an elasticity of 2 MPa. Cells cultured on these arrays were monitored using whole-cell patch-clamp whilst a glass probe was used to apply repeated deflections (of differing magnitudes) to an individual pilus directly beneath the cell. Images were obtained of the pilus before and after deflection and images were analyzed off-line to determine the exact deflection for each data point. Images were obtained using a 40×LD objective and a CoolSNAP EZ CCD camera. Images were analyzed off-line using Igor software (WaveMetrics, USA). The collection of stimulus-response data using pillar arrays generates data sets with variation in both x and y. In order to effectively compare groups for each cell studied we binned response data by stimulus size in the following bins: 0-10, 10-50, 50-100, 100-250, 250-500, 500-1000. For each cell, current amplitudes within each bin were averaged and then bins averaged between cells—we then tested for significance by testing whether the current amplitude for a given stimulation range (i.e. bin) differed between samples. A power analysis was used to determine that moderate to strong effects between samples could be detected with a sample size >4. […] To distinguish mechanoreceptors from nociceptors in the mixed population of acutely prepared DRG neurons, the shape of the generated action potential (AP) was used. […] For quantitative analysis of mechanosensitivity we measured responses in the most sensitive sub-population of mechanoreceptors, previously defined as Typell mechanoreceptors (Poole et al., 2014).\nWe evaluated the effects of OB-1 and OB-2 on mechanosensitive currents in acutely cultured mouse sensory neurons. Neurons were classified on the basis of their AP configuration as mechanoreceptors or nociceptors^2,21."}, "[3]": {"biological_target": "T2, stomatin (Mus musculus, UniProt P54116)", "T2 construct": "expressed in transfected cells; host or cells: HEK293 (general statement on the BiFC assay)", "T2 sequence (P54116 whole entry)": "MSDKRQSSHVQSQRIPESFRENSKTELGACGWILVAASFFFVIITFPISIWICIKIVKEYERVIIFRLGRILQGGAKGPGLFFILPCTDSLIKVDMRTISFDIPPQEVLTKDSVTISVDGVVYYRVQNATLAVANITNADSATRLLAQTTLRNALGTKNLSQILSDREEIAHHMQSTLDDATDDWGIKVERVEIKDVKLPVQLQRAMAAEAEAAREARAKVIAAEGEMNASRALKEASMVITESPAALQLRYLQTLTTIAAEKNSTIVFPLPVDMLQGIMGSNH", "experiment": "BiFC assay of stomatin self-association", "assay_type": "cell-based", "experimental": "as §1, §2"}, "[4]": {"biological_target": "T3, human STOML3 (Homo sapiens, UniProt Q8TAV4)", "T3 construct": "expressed in transfected cells; host or cells: HEK293 (general statement on the BiFC assay)", "T3 sequence (Q8TAV4 whole entry)": "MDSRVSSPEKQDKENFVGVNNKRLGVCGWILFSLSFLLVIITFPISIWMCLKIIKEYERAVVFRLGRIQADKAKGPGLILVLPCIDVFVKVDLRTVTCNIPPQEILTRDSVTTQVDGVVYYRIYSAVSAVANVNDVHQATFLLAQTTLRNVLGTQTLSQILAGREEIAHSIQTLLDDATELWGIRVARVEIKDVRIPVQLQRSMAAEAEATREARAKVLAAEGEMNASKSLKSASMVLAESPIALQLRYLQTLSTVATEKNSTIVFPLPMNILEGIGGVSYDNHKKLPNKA", "experiment": "BiFC assay of human STOML3 self-association", "assay_type": "cell-based", "source_text": "as §2"}, "[5]": {"test_system": "head-restrained mice", "experiment": "Tactile perception task for head-restrained mice", "assay_type": "in vivo, mouse", "quoted_text": "Male C57B16/J mice were anaesthetized and a lightweight metal headholder was implanted to the skull using glue (Loctite 401, Henkel) and dental cement (Paladur®, Heraeus). Mice were habituated to the head-restraint and the behavioral setup over 1-2 days. Mouse licking and forepaw behavior was monitored with three custom-made capacitance sensors: a licking sensor, a rest sensor and a target sensor that provided an online monitor of paw or tongue contact. The rest sensor was a ball (diameter: 6 mm) mounted on a glass rod of 30 mm length, glued to a piezoelectric bender (PICMA® Multilayer Piezo Bender Actuator, Physik Instrumente). The piezo generated a 30 ms cosine tactile pulse via a piezo amplifier system (Sigmann Elektronik). A urethane foam buffer (Poron®, Rogers Cooperation) was placed between the piezo and the supporting platform to reduce ringing oscillations after the stimulus pulse. The stimulus amplitude was calibrated with a high-speed (300 Hz) camera (Dalsa Genie HM640). […] Mice were water restricted and given approximately 4×0.6 μl water rewards on condition of touching the target sensor within a defined latency from stimulus onset and licking the water dispenser. The target sensor moved to the start position at the start of a new trial and away from the mouse at the end of the trial. Inter-trial interval was randomized between 7 and 13 s. […]"}},
  "data": [
    {"smiles": "CCOC(=O)c1c(-c2ccccc2)oc2ccc(Oc3c([N+](=O)[O-])ncn3C)cc12", "note": "[OB-1, Ethyl 5-((1-methyl-4-nitro-1H-imidazol-5-yl)oxy)-2-phenylbenzofuran-3-carboxylate]", "values": [
      {"measurement": "self-association of STOML2 (BiFC)", "setting": "[1]", "value": "effective inhibitor"},
      {"measurement": "AHP (after-hyperpolarization potential)", "setting": "[2]; Mechanoreceptors (n = 9)", "value": "−62.3 ± 1.6", "unit": "mV"},
      {"measurement": "APamp (action potential amplitude)", "setting": "[2]; Mechanoreceptors (n = 9)", "value": "97.8 ± 4.9", "unit": "mV"},
      {"measurement": "APtime (total duration of action potential)", "setting": "[2]; Mechanoreceptors (n = 9)", "value": "11.90 ± 2.9", "unit": "ms"},
      {"measurement": "Input R", "setting": "[2]; Mechanoreceptors (n = 9)", "value": "40.8 ± 6.7", "unit": "MΩ"},
      {"measurement": "Threshold", "setting": "[2]; Mechanoreceptors (n = 9)", "value": "700.0 ± 305.9", "unit": "pA"},
      {"measurement": "Tpeak (Time to action potential peak)", "setting": "[2]; Mechanoreceptors (n = 9)", "value": "7.5 ± 2.0", "unit": "ms"},
      {"measurement": "Trep (Time to repolarizing peak)", "setting": "[2]; Mechanoreceptors (n = 9)", "value": "4.5 ± 1.7", "unit": "ms"},
      {"measurement": "Vrest (Resting potential)", "setting": "[2]; Mechanoreceptors (n = 9)", "value": "−56.6 ± 2.0", "unit": "mV"},
      {"measurement": "AHP (after-hyperpolarization potential)", "setting": "[2]; Nociceptors (n = 12)", "value": "−67.4 ± 1.3", "unit": "mV"},
      {"measurement": "APamp (action potential amplitude)", "setting": "[2]; Nociceptors (n = 12)", "value": "115.4 ± 4.0", "unit": "mV"},
      {"measurement": "APtime (total duration of action potential)", "setting": "[2]; Nociceptors (n = 12)", "value": "10.0 ± 1.5", "unit": "ms"},
      {"measurement": "Input R", "setting": "[2]; Nociceptors (n = 12)", "value": "56.7 ± 5.2", "unit": "MΩ"},
      {"measurement": "Threshold", "setting": "[2]; Nociceptors (n = 12)", "value": "1276.4 ± 256.0", "unit": "pA"},
      {"measurement": "Tpeak (Time to action potential peak)", "setting": "[2]; Nociceptors (n = 12)", "value": "5.0 ± 0.7", "unit": "ms"},
      {"measurement": "Trep (Time to repolarizing peak)", "setting": "[2]; Nociceptors (n = 12)", "value": "5.0 ± 1.1", "unit": "ms"},
      {"measurement": "Vrest (Resting potential)", "setting": "[2]; Nociceptors (n = 12)", "value": "−59.5 ± 1.2", "unit": "mV"},
      {"measurement": "parameters indicative of electrical excitability", "setting": "[2]; treated at least 3 h with 20 μM", "value": "no alteration"},
      {"measurement": "self-association of stomatin (BiFC)", "setting": "[3]", "value": "effective inhibitor"},
      {"measurement": "self-association of the human STOML3 protein (BiFC)", "setting": "[4]", "value": "inhibited"},
      {"measurement": "psychometric curve of tactile stimulus detection", "setting": "[5]; 11 nmol per paw into forepaw, stimulus strengths 125-275 μm", "value": "shifted to the right"},
      {"measurement": "time for detection rates of threshold stimuli to return to pre-treatment levels", "setting": "[5]; after drug treatment", "value": "1 to 4", "unit": "days"}
    ]}
  ]
}
